Where only a bound is given, the exact number is not on record here.

Results on 31 molecules are retold here after patent publication US20060069110A1, “Substituted heterocyclic compounds and methods of use” (priority 2004, published 2006).

The test relates to THP1 cells (LPS induced TNF release). Nature of the test: Lipopolysaccharide-Activated THP1 Cell TNF Production Assay. It counts as cell-based. The settings on record: Homo sapiens, THP-1; THP1 cells, bacterial LPS, secreted TNF-α after 3 h at 37° C.; read-out: IC50 values in the THP1 cell assay (LPS induced TNF release). The method, then:
Lipopolysaccharide-Activated THP1 Cell TNF Production Assay
THP1 cells are resuspended in fresh THP1 media (RPMI 1640, 10% heat-inactivated FBS, 1×PGS, 1×NEAA, plus 30 μM βME) at a concentration of 1E6/mL. One hundred microliters of cells per well are plated in a polystyrene 96-well tissue culture. One microgram per mL of bacterial LPS is prepared in THP1 media and is transferred to the wells. Test compounds are dissolved in 100% DMSO and are serially diluted 3 fold in a polypropylene 96-well microtiter plate (drug plate). HI control and LO control wells contain only DMSO. One microliter of test compound from the drug plate followed by 10 μL of LPS are transferred to the cell plate. The treated cells are induced to synthesize and secrete TNF-α at 37° C. for 3 h. Forty microliters of conditioned media are transferred to a 96-well polypropylene plate containing 110 μL of ECL buffer (50 mM Tris-HCl pH 8.0, 100 mM NaCl, 0.05% Tween 20, 0.05% NaN3 and 1% FBS) supplemented with 0.44 nM MAB610 monoclonal Ab (R&D Systems), 0.34 nM ruthenylated AF210NA polyclonal Ab (R&D Systems) and 44 μg/mL sheep anti-mouse M280 Dynabeads (Dynal). After a 2 h incubation at RT with shaking, the reaction is read on the ECL M8 Instrument (IGEN Inc.). A low voltage is applied to the ruthenylated TNF-α immune complexes, which in the presence of TPA (the active component in Origlo), results in a cyclical redox reaction generating light at […]. The amount of secreted TNF-α in the presence of compound compared with that in the presence of DMSO vehicle alone (HI control) is calculated using the formula: % control (POC)=(cpd−average LO)/(average HI−average LO)*100. Data (consisting of POC and inhibitor concentration in μM) is fitted to a 4-parameter equation (y=A+((B−A)/(1+((×/C)ôD))), where A is the minimum y (POC) value, B is the maximum y (POC), C is the x (cpd concentration) at the point of inflection and D is the slope factor) using a Levenburg-Marquardt non-linear regression algorithm.
The term IC50 denotes the midpoint of a concentration-inhibition curve. In the case of `CN(c1ccnc(N[C@H]2CC[C@H](N)CC2)n1)c1ccnc(-c2ccccc2F)n1` [Example 93, N^2-(4-Aminocyclohexyl)-N^4-(2-(2-fluorophenyl)pyrimidin-4-yl)-N^4-methyl-pyrimidine-2,4-diamine], the IC50 was at most 20 µM.

Turning to `CNC(=O)c1cnc(-c2ccccc2)nc1Nc1ccnc(NCCc2cccnc2)n1` [Example 101, N-Methyl-2-phenyl-4-(2-(2-(pyridin-3-yl)ethylamino)pyrimidin-4-ylamino)-pyrimidine-5-carboxamide], the IC50 is at most 20 µM.

Turning to `CN(c1ccnc(NCCc2cccnc2)n1)c1ccnc(-c2ccccc2)n1` [Example 15, N^4-Methyl-N^4-(2-phenylpyrimidin-4-yl)-N^2-(2-(pyridin-3-yl)ethyl)pyrimidine-2,4-diamine], the IC50 is at most 20 µM.

Consider `CSc1nccc(Nc2cc(-c3ccccc3)c(=O)n(C)c2)n1` [1-methyl-5-((2-(methylsulfanyl)-4-pyrimidinyl)amino)-3-phenyl-2(1H)-pyridinone], for which the IC50 is at most 20 µM.

Regarding `CNC(=O)c1cnc(-c2ccccc2)nc1Nc1ccnc(NCCc2ccccn2)n1` [Example 99, N-Methyl-2-phenyl-4-(2-(2-(pyridin-2-yl)ethylamino)pyrimidin-4-ylamino)-pyrimidine-5-carboxamide], the IC50 was at most 20 µM.

For `CN(c1ccnc(N[C@H](CCO)c2ccccc2)n1)c1ccnc(-c2ccccc2)n1` [Example 31, (R)-3-(4-(Methyl(2-phenylpyrimidin-4-yl)amino)pyrimidin-2-ylamino)-3-phenylpropan-1-ol], the IC50 is at most 20 µM.

On to `CN(c1ccnc(N[C@H]2CC[C@H](N)CC2)n1)c1nc(-c2ccccc2)ncc1F` [Example 67, N^2-(4-Aminocyclohexyl)-N^4-(5-fluoro-2-phenylpyrimidin-4-yl)-N^4-methyl-pyrimidine-2,4-diamine], for which the IC50 was at most 20 µM.

In the case of `CN(c1cc(-c2ccccc2)c(=O)n(C)c1)c1ccnc(NC2CCNCC2)n1` [Example 174, 1-Methyl-5-(methyl(2-(piperidin-4-ylamino)pyrimidin-4-yl)amino)-3-phenylpyridin-2(1H)-one], the IC50 is at most 20 µM.

Consider `C[C@@H](Cc1cccc(CN)c1)Nc1nccc(N(C)c2nc(N)cc(-c3ccccc3)n2)n1` [Example 8, (S)-N^4-(4-Amino-6-phenylpyrimidin-2-yl)-N^2-(1-(3-(aminomethyl)phenyl)propan-2-yl)-N^4-methylpyrimidine-2,4-diamine], for which the IC50 was at most 20 µM.

As to `CN(c1ccnc(NCCN2CCOCC2)n1)c1ccnc(-c2ccccc2)n1` [Example 96, N^4-Methyl-N^2-(2-morpholinoethyl)-N^4-(2-phenylpyrimidin-4-yl)pyrimidine-2,4-diamine], the IC50 is at most 20 µM.

In the case of `C[C@@H](Cc1cc(CN)ccc1Cl)Nc1nccc(N(C)c2ccnc(-c3ccccc3)n2)n1` [Example 42, (S)-N^2-(1-(5-(Aminomethyl)-2-chlorophenyl)propan-2-yl)-N^4-methyl-N^4-(2-phenyl-pyrimidin-4-yl)pyrimidine-2,4-diamine], the IC50 was at most 20 µM.

Turning to `CN(c1ccnc(NCCc2ccccn2)n1)c1cc(O)nc(-c2ccccc2)n1` [Example 120, 6-(Methyl(2-(2-(pyridin-2-yl)ethylamino)pyrimidin-4-yl)amino)-2-phenylpyrimidin-4-ol], the IC50 is at most 20 µM.

`CN(c1ccnc(N[C@@H](CN)Cc2ccccc2)n1)c1ccnc(-c2ccccc2)n1` [Example 48, (R)-N^2-(1-Amino-3-phenylpropan-2-yl)-N^4-methyl-N^4-(2-phenylpyrimidin-4-yl)pyrimidine-2,4-diamine]: the IC50 was at most 20 µM.

On to `CN(c1ccnc(NCCc2cccnc2)n1)c1nc(-c2ccccc2)ncc1C(N)=O` [Example 64, 4-(Methyl(2-(2-(pyridin-3-yl)ethylamino)pyrimidin-4-yl)amino)-2-phenyl-pyrimidine-5-carboxamide], for which the IC50 is at most 20 µM.

For `CN(c1ccnc(NC[C@H](N)c2ccccc2)n1)c1ccnc(-c2ccccc2)n1` [Example 112], the IC50 is at most 20 µM.

Regarding `CC(C)[C@H](CCN1CCOCC1)Nc1nccc(N(C)c2ccnc(-c3ccccc3)n2)n1` [Example 62, (S)-N^4-Methyl-N^2-(4-methyl-1-morpholinopentan-3-yl)-N^4-(2-phenylpyrimidin-4-yl)pyrimidine-2,4-diamine], the IC50 is at most 20 µM.

For the molecule `C[C@@H](Cc1cccc(CN)c1)Nc1nccc(N(C)c2cc(-c3ccccc3)c(=O)n(C)c2)n1` [Example 178, (S)-5-((2-(1-(3-(Aminomethyl)phenyl)propan-2-ylamino)pyrimidin-4-yl)(methyl)-amino)-1-methyl-3-phenylpyridin-2(1H)-one], the half-maximal inhibitory concentration (IC50) was at most 20 µM.

`CN(c1ccnc(NCCc2ccccc2Cl)n1)c1ccnc(-c2ccccc2)n1` [Example 14, N^2-(2-Chlorophenethyl)-N^4-methyl-N^4-(2-phenylpyrimidin-4-yl)pyrimidine-2,4-diamine]: the IC50 is at most 20 µM.

For the molecule `CC(Cc1cccc(CO)c1)Nc1nccc(N(C)c2cccc(-c3cccc(F)c3)n2)n1` (stereo not shown) [Example 156, (3-(2-(4-((6-(3-Fluorophenyl)pyridin-2-yl)(methyl)amino)pyrimidin-2-ylamino)propyl)phenyl)methanol], the IC50 was at most 20 µM.

`CN(c1ccnc(NCCc2ccccc2)n1)c1nccc(C(C)(C)C)n1` [Example 186, N^4-(4-tert-Butylpyrimidin-2-yl)-N^4-methyl-N^2-phenethylpyrimidine-2,4-diamine]: the IC50 was at most 20 µM.

Regarding `CN(c1cccc(-c2cccs2)n1)c1ccnc(NCCc2ccccc2)n1` [Example 150, N^4-Methyl-N^2-phenethyl-N^4-(6-(thiophen-2-yl)pyridin-2-yl)pyrimidine-2,4-diamine], the 50% inhibitory concentration (IC50) was at most 20 µM.

In the case of `CC(C)[C@H](CC(=O)N1CCOCC1)Nc1nccc(N(C)c2ccnc(-c3ccccc3)n2)n1` [Example 61], the IC50 was at most 20 µM.

Consider `Clc1ccccc1CCNc1nccc(Nc2cc(-c3ccccc3)c(Cl)nn2)n1` [Example 183, N^2-(2-Chlorophenethyl)-N4-(6-chloro-5-phenylpyridazin-3-yl)pyrimidine-2,4-di-amine], for which the IC50 was at most 20 µM.

In the case of `CN(c1ccnc(NC(C)(C)Cc2ccccc2)n1)c1ccnc(-c2ccccc2)n1` [Example 6, N^4-Methyl-N^2-(2-methyl-1-phenylpropan-2-yl)-N^4-(2-phenylpyrimidin-4-yl)pyrimidine-2,4-diamine], the IC50 was at most 20 µM.

With `C[C@@H](Cc1cccc(CN)c1)Nc1nccc(N(C)c2ccnc(-c3ccc(F)cc3F)n2)n1` [Example 91, N^2-((S)-1-(3-(Aminomethyl)phenyl)propan-2-yl)-N^4-(2-(2,4-difluorophenyl)-pyrimidin-4-yl)-N^4-methylpyrimidine-2,4-diamine], the 50% inhibitory concentration (IC50) is at most 20 µM.

In the case of `CN(c1ccnc(N[C@@H](CNC(=O)CN)Cc2ccccc2)n1)c1ccnc(-c2ccccc2)n1` [Example 52, (R)-2-Amino-N-(2-(4-(methyl(2-phenylpyrimidin-4-yl)amino)pyrimidin-2-ylamino)-3-phenylpropyl)acetamide], the IC50 is at most 20 µM.

As to `CN(c1cccc(-c2cccc(Cl)c2)n1)c1ccnc(NCCc2ccccc2)n1` [Example 135, N^4-(6-(3-chlorophenyl)pyridin-2-yl)-N^4-methyl-N^2-phenethylpyrimidine-2,4-diamine], the IC50 is at most 20 µM.

In the case of `C[C@H](NC(=O)OC(C)(C)C)c1ccc(CCNc2nccc(N(C)c3ccnc(-c4ccccc4)n3)n2)cc1` [Example 4, (S)-tert-Butyl 1-(4-(2-(4-(methyl(2-phenylpyrimidin-4-yl)amino)pyrimidin-2-ylamino)ethyl)phenyl)ethyl carbamate], the IC50 was at most 20 µM.

`CC(=O)N[C@H]1CC[C@H](Nc2nccc(N(C)c3ccnc(-c4ccccc4)n3)n2)CC1` [Example 24, N-(4-(4-(Methyl(2-phenylpyrimidin-4-yl)amino)pyrimidin-2-ylamino)cyclohexyl)-acetamide]: the IC50 is at most 20 µM.

As to `NC(=O)c1cnc(-c2ccccc2)nc1Nc1ccnc(NCCc2cccnc2)n1` [Example 65, 2-Phenyl-4-(2-(2-(pyridin-3-yl)ethylamino)pyrimidin-4-ylamino)pyrimidine-5-carboxamide], the IC50 is at most 20 µM.

In the case of `CN(c1ccnc(NC[C@H](O)c2ccccc2)n1)c1ccnc(-c2ccccc2)n1` [Example 110, (R)-2-(4-(Methyl(2-phenylpyrimidin-4-yl)amino)pyrimidin-2-ylamino)-1-phenyl-ethanol], the IC50 was at most 20 µM.
